Test systems include HT29 colon; OVCAR-8 ovarian; A549 NSCLC; HL-60(TB) leukemia; NCI-H460 lung; RPMI-8226 leukemia; NCI-H226 lung; SF-539 CNS; SK-MEL-28 melanoma; UACC-62 melanoma.
Common to all, as to experiment: DTP human tumour cell line panel, 48 h

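Method: 48-hour compound exposure of cells in 96-well plates, five concentrations, linear interpolation of endpoints. GI50 = concentration required for 50% inhibition of growth. Definition used: TGI = concentration required for complete inhibition of growth.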 Where only a bound is given, the exact number is not on record here.

Turning to `CCCCCCNC(=O)Oc1ccc(/C(=C(/C)Cc2ccc(OC)cc2)c2ccc(OCCCN(C)C)cc2)cc1`, the GI50 in the assay with HT29 colon was 4.4 µM; in the assay on OVCAR-8 ovarian it was 17.3 µM; with A549 NSCLC, 16.6 µM; with HL-60(TB) leukemia it was 10.5 µM; in the assay with NCI-H460 lung, 14.1 µM; in the assay with RPMI-8226 leukemia it was 15.9 µM. In addition, the GI50 in the assay on NCI-H226 lung was 19.4 µM; in the assay on SF-539 CNS it was 16.2 µM; with SK-MEL-28 melanoma, 14.5 µM; in the assay with UACC-62 melanoma, 16.6 µM. Moreover, the TGI with HT29 colon worked out at 15.2 µM; in the assay with OVCAR-8 ovarian, 34.5 µM; in the assay with A549 NSCLC, 31.2 µM; with HL-60(TB) leukemia, 24.9 µM; in the assay with NCI-H460 lung, 28.2 µM; in the assay with RPMI-8226 leukemia it was 35 µM. Besides, the TGI worked out at 36 µM with NCI-H226 lung, 30.3 µM in the assay with SF-539 CNS, 28.1 µM with SK-MEL-28 melanoma and 30.4 µM with UACC-62 melanoma.

In the case of `COc1cc(-c2cc(-c3ccc(Nc4ccnc5cc(Cl)ccc45)cc3)nc(N3CCOCC3)n2)cc(OC)c1OC`, the GI50 is 1.97 µM in the assay on HT29 colon; 2.12 µM in the assay with OVCAR-8 ovarian; 1.76 µM in the assay with A549 NSCLC; 5.99 µM in the assay on HL-60(TB) leukemia; 1.87 µM in the assay on NCI-H460 lung; 1.57 µM in the assay with RPMI-8226 leukemia. Further, the GI50 is 11.4 µM in the assay with NCI-H226 lung, 1.94 µM with SF-539 CNS, 1.98 µM in the assay with SK-MEL-28 melanoma and 1.98 µM with UACC-62 melanoma. Moreover, the total growth inhibition concentration (TGI) with HT29 colon is 4.61 µM; in the assay with OVCAR-8 ovarian, 4.7 µM; in the assay with A549 NSCLC, 3.47 µM; with HL-60(TB) leukemia, 82.1 µM; in the assay on NCI-H460 lung, 3.89 µM; in the assay with RPMI-8226 leukemia it was 5.02 µM. Moreover, the total growth inhibition concentration (TGI) in the assay on NCI-H226 lung turned out to be 38.2 µM; in the assay with SF-539 CNS, 3.67 µM; in the assay with SK-MEL-28 melanoma, 3.93 µM; with UACC-62 melanoma it was 3.83 µM.

For the molecule `N[C@@H]1C(=O)N2C(C(=O)OC(c3ccccc3)c3ccccc3)=C(CCl)CS[C@H]12`, the GI50 is 30.2 µM with HT29 colon; 27.3 µM in the assay on OVCAR-8 ovarian; above 67.5 µM in the assay with A549 NSCLC; 2.46 µM in the assay with HL-60(TB) leukemia; 34 µM in the assay with NCI-H460 lung; 16.8 µM in the assay on RPMI-8226 leukemia. The GI50 is 55.2 µM with NCI-H226 lung, 23.5 µM in the assay on SF-539 CNS, 22.4 µM with SK-MEL-28 melanoma and 42.7 µM in the assay with UACC-62 melanoma. Besides, the TGI in the assay on HT29 colon was above 94 µM; in the assay with OVCAR-8 ovarian, above 77 µM; in the assay with A549 NSCLC, above 100 µM; in the assay on HL-60(TB) leukemia, above 38.3 µM; in the assay on NCI-H460 lung it was above 100 µM; in the assay on RPMI-8226 leukemia, 50.8 µM. Besides, the TGI with NCI-H226 lung is above 100 µM; with SF-539 CNS it was 50.2 µM; in the assay with SK-MEL-28 melanoma, 53.8 µM; in the assay with UACC-62 melanoma, above 91.2 µM.

Turning to `Cn1c(=O)c(NC(=O)C(Cl)(Cl)Cl)nc2ccccc21`, the TGI with HT29 colon, in the assay with OVCAR-8 ovarian, with A549 NSCLC, with HL-60(TB) leukemia, in the assay with NCI-H460 lung and with RPMI-8226 leukemia was above 100 µM in each case. For the same molecule, the TGI in the assay on NCI-H226 lung, with SF-539 CNS, with SK-MEL-28 melanoma and in the assay with UACC-62 melanoma was above 100 µM in each case.

For the molecule `CN(C)c1nnnn1-c1c(N)n(C)c(=O)n(C)c1=O`, the concentration for total growth inhibition (TGI) with HT29 colon, with OVCAR-8 ovarian, with A549 NSCLC, in the assay on HL-60(TB) leukemia, in the assay on NCI-H460 lung and in the assay on RPMI-8226 leukemia was above 100 µM throughout. Also, the TGI with NCI-H226 lung, in the assay on SF-539 CNS, in the assay with SK-MEL-28 melanoma and in the assay with UACC-62 melanoma was above 100 µM each time.

On to `FC(F)(F)c1ccc(-c2cnc(-n3cc(COCCN4CCCCC4)nn3)nc2NC2CCCCCC2)cc1`, for which the GI50 is 1.46 µM with HT29 colon; 4.12 µM with OVCAR-8 ovarian; 4.16 µM in the assay on A549 NSCLC; 3.84 µM in the assay on HL-60(TB) leukemia; 4.57 µM in the assay on NCI-H460 lung; 3.85 µM with RPMI-8226 leukemia. For the same molecule, the GI50 in the assay on NCI-H226 lung is 3.54 µM; in the assay with SF-539 CNS, 3.89 µM; in the assay on SK-MEL-28 melanoma, 3.6 µM; with UACC-62 melanoma, 3.88 µM. The TGI with HT29 colon was found to be 5.08 µM; in the assay on OVCAR-8 ovarian it was 8.74 µM; in the assay with A549 NSCLC it was 8.18 µM; in the assay on HL-60(TB) leukemia, 8.26 µM; in the assay on NCI-H460 lung, 8.84 µM; with RPMI-8226 leukemia it was 9.03 µM. The TGI was found to be 7.83 µM with NCI-H226 lung, 7.42 µM in the assay with SF-539 CNS, 6.99 µM in the assay with SK-MEL-28 melanoma and 7.6 µM with UACC-62 melanoma.

Regarding `CC1=CC(=O)C(C(C)C)=CC1=Nc1cc(Br)c(O)c(Br)c1`, the GI50 with HT29 colon was 4.05 µM; in the assay with OVCAR-8 ovarian, 4.65 µM; with A549 NSCLC, 4.98 µM; in the assay on HL-60(TB) leukemia it was 3.48 µM; in the assay with NCI-H460 lung it was 3.53 µM; in the assay on RPMI-8226 leukemia, 4.51 µM. Besides, the GI50 in the assay with NCI-H226 lung is 3.87 µM; in the assay on SF-539 CNS, 2.29 µM; in the assay on SK-MEL-28 melanoma, 6.82 µM; with UACC-62 melanoma, 2.86 µM. In addition, the TGI with HT29 colon is 16 µM; with OVCAR-8 ovarian, 57.8 µM; in the assay on A549 NSCLC, above 100 µM; in the assay with HL-60(TB) leukemia, 8.5 µM; with NCI-H460 lung, 14.4 µM; in the assay with RPMI-8226 leukemia it was 27.5 µM. The TGI was found to be 19.3 µM in the assay on NCI-H226 lung, 5.96 µM in the assay with SF-539 CNS, 22.4 µM with SK-MEL-28 melanoma and 13.1 µM in the assay on UACC-62 melanoma.

For the molecule `Cc1ccc(C(NC(=O)c2ccccc2)c2ccc3cccnc3c2O)cc1` (stereo not given), the GI50 in the assay on HT29 colon is 0.536 µM; in the assay on OVCAR-8 ovarian it was 0.306 µM; in the assay on A549 NSCLC, 0.379 µM; with HL-60(TB) leukemia, 0.288 µM; with NCI-H460 lung, 0.26 µM; with RPMI-8226 leukemia, 0.323 µM. The 50% growth inhibitory concentration (GI50) was 0.302 µM in the assay on NCI-H226 lung, 0.318 µM in the assay with SF-539 CNS, 0.492 µM in the assay with SK-MEL-28 melanoma and 0.236 µM in the assay on UACC-62 melanoma. The TGI with HT29 colon was 19.4 µM; in the assay with OVCAR-8 ovarian it was 25.1 µM; with A549 NSCLC, 12.7 µM; in the assay on HL-60(TB) leukemia it was 1 µM; with NCI-H460 lung it was 3.08 µM; in the assay on RPMI-8226 leukemia, 17.8 µM. Moreover, the TGI amounted to 3.69 µM with NCI-H226 lung, 1.91 µM in the assay with SF-539 CNS, 41.6 µM with SK-MEL-28 melanoma and 0.763 µM with UACC-62 melanoma.

By GI50 is commonly meant the concentration giving 50% growth inhibition. One may read the TGI as the concentration at which net growth stops.

The values above are taken from PubChem BioAssay (NCI).
